Measured values: patent US6156790A, “C-10 carbon-substituted artemisinin-like trioxane compounds having antimalarial, antiproliferative and antitumor activities” (priority 1997, dated 2000)
Read-outs that look alike come from different tables or passages of the source.

Columns and labels:
SK-MEL-2 = experiment: cells; format: cell-based; details: Homo sapiens
SNB-19 = experiment: cells; format: cell-based; details: Homo sapiens, read-out: Log10 LC50 (converted)
SW-620 = experiment: NCI 60 cell line screen (SRB), colon cancer; format: cell-based; details: Homo sapiens
RXF 393 = experiment: cells; details: Homo sapiens
60 cell line panel = experiment: NCI 60 cell line screen, whole panel; format: cell-based; details: panel
HOP-62 = experiment: cells; format: cell-based; details: Homo sapiens
TK-10 = experiment: cells; format: cell-based; details: Homo sapiens, read-out: Log10 LC50 (converted)
NCI-H23 = experiment: NCI 60 cell line screen (SRB), non-small cell lung cancer; format: cell-based; details: Homo sapiens, read-out: Log10 TGI (converted)
NCI-H226 = experiment: as above; format: cell-based; details: Homo sapiens
MDA-N = experiment: cells; format: cell-based; details: Homo sapiens
MCF7 = experiment: cells; format: cell-based; details: Homo sapiens, MCF7; read-out: Log10 LC50 (converted)
M14 = experiment: NCI 60 cell line screen (SRB), melanoma; details: Homo sapiens, M14, read-out: Log10 TGI
NCI-H460 = experiment: cells; format: cell-based; details: Homo sapiens, NCI-H460; read-out: Log10 LC50 (converted)
PC-3 = experiment: cells; format: cell-based; details: Homo sapiens, PC-3
HCT-116 = experiment: cells; format: cell-based; details: Homo sapiens
IGROVI = experiment: cells; details: 60 cell
KM12 = experiment: cells; format: cell-based; details: Homo sapiens, read-out: Log10 TGI (converted)
MDA-MB231/ATCC = experiment: cells; format: cell-based; details: Homo sapiens
UO-31 = experiment: NCI 60 cell line screen (SRB), renal cancer; format: cell-based; details: Homo sapiens
EKVX = experiment: NCI 60 cell line screen (SRB), non-small cell lung cancer; format: cell-based; details: Homo sapiens
A498 = experiment: cells; format: cell-based; details: Homo sapiens, read-out: Log10 LC50 (converted)
A549/ATCC = experiment: NCI 60 cell line screen (SRB), non-small cell lung cancer; format: cell-based; details: Homo sapiens
T-47D = experiment: cells; format: cell-based; details: Homo sapiens, T47D; T-47D; read-out: Log10 LC50 (converted)
HCT-15 = experiment: cells; format: cell-based; details: Homo sapiens, HCT-15; read-out: Log10 LC50 (converted)
SR = experiment: cells; format: cell-based; details: Homo sapiens, read-out: Log10 TGI (converted)
MOLT-4 = experiment: cells; details: Homo sapiens
Experimental: The screening assay is performed on a 96-well microtitre plates.
Dose response curves, shown in the above mentioned Figures, are obtained by exposing various cancer cell lines to compounds having a known concentration ([log10 M]), as discussed in detail above, and then plotting the percentage growth of each cell line for each concentration. […] As discussed previously, the five drug dilutions routinely tested range from 10^-4 to 10^-9 molar.

U251 = experiment: cells; format: cell-based; details: Homo sapiens
HOP-92 = experiment: NCI 60 cell line screen (SRB), non-small cell lung cancer; format: cell-based; details: Homo sapiens
ACHN = experiment: cells; details: Homo sapiens
BT-549 = experiment: cells; format: cell-based; details: Homo sapiens
SNB-75 = experiment: cells; format: cell-based; details: Homo sapiens, read-out: Log10 TGI (converted)
OVCAR-8 = experiment: NCI 60 cell line screen (SRB), ovarian cancer; format: cell-based; details: Homo sapiens
HT29 = experiment: cells; format: cell-based; details: Homo sapiens, HT-29, read-out: Log10 TGI (converted)
[1] = read-out: Log10 LC50 (converted)
[2] = read-out: Log10 TGI (converted)
[3] = read-out: Log10 GI50 (converted)

C[C@@H]1CC[C@H]2[C@@H](C)C(=O)O[C@@H]3O[C@@]4(C)CC[C@@H]1[C@]32OO4 [Artemisinin]
83.2 µM: GI50 (RXF 393; RXF 393, read-out: Log10 GI50 (converted))
> 100 µM: CC50 (SK-MEL-2; [1]) | IC (TGI) (SK-MEL-2; [2]) | CC50 (SNB-19) | CC50 (SW-620; [1]) | IC (TGI) (SW-620; [2]) | CC50 (RXF 393; RXF 393, read-out: Log10 LC50 (converted)) | CC50 (HOP-62; [1]) | IC (TGI) (HOP-62; [2]) | CC50 (TK-10) | IC (TGI) (NCI-H23) | CC50 (NCI-H226; [1]) | IC (TGI) (NCI-H226; [2]) | CC50 (MDA-N; [1]) | IC (TGI) (MDA-N; [2]) | CC50 (MCF7) | IC (TGI) (M14) | CC50 (NCI-H460) | CC50 (PC-3; [1]) | CC50 (HCT-116; [1]) | IC (TGI) (HCT-116; [2]) | IC (TGI) (IGROVI; read-out: Log10 TGI) | IC (TGI) (KM12) | CC50 (MDA-MB231/ATCC; MDA-MB-231, read-out: Log10 LC50 (converted)) | CC50 (UO-31; [1]) | CC50 (EKVX; [1]) | IC (TGI) (EKVX; [2]) | CC50 (A498) | CC50 (A549/ATCC; [1]) | IC (TGI) (A549/ATCC; [2]) | CC50 (T-47D) | CC50 (HCT-15) | IC (TGI) (SR) | CC50 (MOLT-4; MOLT-4, read-out: Log10 LC50 (converted)) | IC (TGI) (MOLT-4; MOLT-4, read-out: concentration for cytostasis) | CC50 (MOLT-4; MOLT-4, read-out: concentration for cytotoxicity) | GI50 (MOLT-4; MOLT-4, read-out: concentration for primary growth inhibition) | CC50 (U251; U-251, read-out: Log10 LC50 (converted)) | IC (TGI) (U251; U-251, read-out: Log10 TGI (converted)) | CC50 (HOP-92; [1]) | IC (TGI) (HOP-92; [2]) | CC50 (ACHN; [1]) | IC (TGI) (ACHN; read-out: Log10 TGI) | CC50 (BT-549; [1]) | IC (TGI) (SNB-75) | CC50 (OVCAR-8; [1]) | IC (TGI) (OVCAR-8; [2]) | IC (TGI) (HT29)
-4.00: Log10 LC50 Delta (60 cell line panel) | Log10 TGI Delta (60 cell line panel)
0.06: Log10 TGI Range (60 cell line panel)
63.1 µM: GI50 (MDA-MB231/ATCC; MDA-MB-231, read-out: Log10 GI50 (converted))
87.1 µM: GI50 (UO-31; [3]) | GI50 (BT-549; [3])
85.1 µM: GI50 (60 cell line panel; 60 cell, read-out: Log10 GI50 Delta (converted))
100 µM: IC (TGI) (MDA-MB231/ATCC; MDA-MB-231, read-out: Log10 TGI (converted)) | IC (TGI) (UO-31; [2]) | IC (TGI) (BT-549; [2])
67.6 µM: GI50 (PC-3; [3]) | GI50 (A549/ATCC; [3])
49 µM: GI50 (IGROVI; [3])
